Results from ChEMBL document CHEMBL3046609, “Herbicidal properties of the thaxtomin group of phytotoxins” (2001).
Activity calls are given as the source filed them. The calls are words filed in the database; no cut-off is given here.

How the values were obtained:
Arabidopsis thaliana [1] = experiment: Growth inhibition of Arabidopsis thaliana var. Columbia assessed as root tip puffing after 9 days by agarose-based test; assay type: functional, organism-based
Arabidopsis thaliana [2] = experiment: Growth inhibition of Arabidopsis thaliana var. Columbia assessed as stunting after 9 days by agarose-based test; assay type: functional, organism-based
[3] = test system: Agrostis stolonifera var. palustris; experiment: Herbicidal activity against Agrostis stolonifera var. palustris assessed as stunting after 9 days by agarose-based test; assay type: functional, organism-based
[4] = test system: Agrostis stolonifera var. palustris; experiment: Herbicidal activity against Agrostis stolonifera var. palustris assessed as root tip puffing after 9 days by agarose-based test; assay type: functional, organism-based
Arabidopsis thaliana [5] = experiment: Growth inhibition of Arabidopsis thaliana var. Columbia after 9 days by agarose-based test; assay type: functional
[6] = test system: Agrostis stolonifera var. palustris; experiment: Herbicidal activity against Agrostis stolonifera var. palustris after 9 days by agarose-based test; assay type: functional
Avena fatua [7] = experiment: Post-emergence growth inhibition of Avena fatua assessed as visual injury at 0.5 kg/ha after 9 days relative to control; assay type: functional; set-up: scale not given: the % may be the effect or the level left
Avena fatua [8] = experiment: Post-emergence growth inhibition of Avena fatua assessed as visual injury at 0.25 kg/ha after 9 days relative to control; assay type: functional; set-up: scale not given: the % may be the effect or the level left
Avena fatua [9] = experiment: Post-emergence growth inhibition of Avena fatua assessed as visual injury at 0.125 kg/ha after 9 days relative to control; assay type: functional; set-up: scale not given: the % may be the effect or the level left
Abutilon theophrasti [10] = experiment: Herbicidal activity against Abutilon theophrasti (velvetleaf) assessed as visual injury at 1 ug/seedling applied to leaf after 1 week relative to control; assay type: functional
Abutilon theophrasti [11] = experiment: Herbicidal activity against Abutilon theophrasti (velvetleaf) assessed as visual injury at 10 ug/seedling applied to meristem after 1 week relative to control; assay type: functional
Avena fatua [12] = experiment: Post-emergence growth inhibition of Avena fatua assessed as visual injury at 1 kg/ha after 9 days relative to control; assay type: functional; set-up: scale not given: the % may be the effect or the level left
Helianthus annuus [13] = experiment: Herbicidal activity against Helianthus annuus (sunflower) assessed as visual injury at 1 ug/seedling applied to meristem after 1 week relative to control; assay type: functional
Helianthus annuus [14] = experiment: Herbicidal activity against Helianthus annuus (sunflower) assessed as visual injury at 1 ug/seedling applied to cotyledon after 1 week relative to control; assay type: functional
Abutilon theophrasti [15] = experiment: Herbicidal activity against Abutilon theophrasti (velvetleaf) assessed as visual injury at 1 ug/seedling applied to meristem after 1 week relative to control; assay type: functional
Abutilon theophrasti [16] = experiment: Herbicidal activity against Abutilon theophrasti (velvetleaf) assessed as visual injury at 100 ug/seedling applied to leaf after 1 week relative to control; assay type: functional
Abutilon theophrasti [17] = experiment: Herbicidal activity against Abutilon theophrasti (velvetleaf) assessed as visual injury at 10 ug/seedling applied to leaf after 1 week relative to control; assay type: functional
Echinochloa crus-galli [18] = experiment: Post-emergence herbicidal activity against Echinochloa crus-galli (barnyard grass) assessed as visual injury at 0.5 kg/ha after 9 days relative to control; assay type: functional
Helianthus annuus [19] = experiment: Post-emergence growth inhibition of Helianthus annuus (sunflower) assessed as visual injury at 0.5 kg/ha after 9 days relative to control; assay type: functional; set-up: scale not given: the % may be the effect or the level left
Helianthus annuus [20] = experiment: Herbicidal activity against Helianthus annuus (sunflower) assessed as visual injury at 10 ug/seedling applied to meristem after 1 week relative to control; assay type: functional
Echinochloa crus-galli [21] = experiment: Post-emergence herbicidal activity against Echinochloa crus-galli (barnyard grass) assessed as visual injury at 1 kg/ha after 9 days relative to control; assay type: functional
Helianthus annuus [22] = experiment: Post-emergence growth inhibition of Helianthus annuus (sunflower) assessed as visual injury at 1 kg/ha after 9 days relative to control; assay type: functional; set-up: scale not given: the % may be the effect or the level left
Echinochloa crus-galli [23] = experiment: Post-emergence herbicidal activity against Echinochloa crus-galli (barnyard grass) assessed as visual injury at 0.25 kg/ha after 9 days relative to control; assay type: functional
Ipomoea hederacea [24] = experiment: Post-emergence herbicidal activity against Ipomoea hederacea (ivy-leaved morning glory) assessed as visual injury at 0.5 kg/ha after 9 days relative to control; assay type: functional
Helianthus annuus [25] = experiment: Post-emergence growth inhibition of Helianthus annuus (sunflower) assessed as visual injury at 0.125 kg/ha after 9 days relative to control; assay type: functional; set-up: scale not given: the % may be the effect or the level left
Ipomoea hederacea [26] = experiment: Post-emergence herbicidal activity against Ipomoea hederacea (ivy-leaved morning glory) assessed as visual injury at 0.125 kg/ha after 9 days relative to control; assay type: functional
Helianthus annuus [27] = experiment: Herbicidal activity against Helianthus annuus (sunflower) assessed as visual injury at 100 ug/seedling applied to meristem after 1 week relative to control; assay type: functional
Abutilon theophrasti [28] = experiment: Herbicidal activity against Abutilon theophrasti (velvetleaf) assessed as visual injury at 100 ug/seedling applied to meristem after 1 week relative to control; assay type: functional
Echinochloa crus-galli [29] = experiment: Post-emergence herbicidal activity against Echinochloa crus-galli (barnyard grass) assessed as visual injury at 0.125 kg/ha after 9 days relative to control; assay type: functional
Ipomoea hederacea [30] = experiment: Post-emergence herbicidal activity against Ipomoea hederacea (ivy-leaved morning glory) assessed as visual injury at 1 kg/ha after 9 days relative to control; assay type: functional
Helianthus annuus [31] = experiment: Post-emergence growth inhibition of Helianthus annuus (sunflower) assessed as visual injury at 0.25 kg/ha after 9 days relative to control; assay type: functional; set-up: scale not given: the % may be the effect or the level left
Helianthus annuus [32] = experiment: Herbicidal activity against Helianthus annuus (sunflower) assessed as visual injury at 10 ug/seedling applied to cotyledon after 1 week relative to control; assay type: functional
Helianthus annuus [33] = experiment: Herbicidal activity against Helianthus annuus (sunflower) assessed as visual injury at 100 ug/seedling applied to cotyledon after 1 week relative to control; assay type: functional
Ipomoea hederacea [34] = experiment: Post-emergence herbicidal activity against Ipomoea hederacea (ivy-leaved morning glory) after 9 days; assay type: functional
Ipomoea hederacea [35] = experiment: Post-emergence herbicidal activity against Ipomoea hederacea (ivy-leaved morning glory) assessed as visual injury at 0.25 kg/ha after 9 days relative to control; assay type: functional
Helianthus annuus [36] = experiment: Post-emergence growth inhibition of Helianthus annuus (sunflower) assessed as visual injury at 2 kg/ha after 9 days relative to control; assay type: functional; set-up: scale not given: the % may be the effect or the level left
Echinochloa crus-galli [37] = experiment: Post-emergence herbicidal activity against Echinochloa crus-galli (barnyard grass) assessed as visual injury at 2 kg/ha after 9 days relative to control; assay type: functional
Avena fatua [38] = experiment: Post-emergence growth inhibition of Avena fatua assessed as visual injury at 2 kg/ha after 9 days relative to control; assay type: functional; set-up: scale not given: the % may be the effect or the level left
Ipomoea hederacea [39] = experiment: Post-emergence herbicidal activity against Ipomoea hederacea (ivy-leaved morning glory) assessed as visual injury at 2 kg/ha after 9 days relative to control; assay type: functional

Row | SMILES | growth inhibition (GI) (Arabidopsis thaliana [1]) | growth inhibition (GI) (Arabidopsis thaliana [2]) | Activity [3] | Activity [4] | I50 (Arabidopsis thaliana [5]) | I50 [6] | Activity (Abutilon theophrasti [10]) | Activity (Abutilon theophrasti [11]) | Activity (Helianthus annuus [13]) | Activity (Helianthus annuus [14]) | Activity (Abutilon theophrasti [15]) | Activity (Abutilon theophrasti [16]) | Activity (Abutilon theophrasti [17]) | Activity (Helianthus annuus [20]) | Activity (Helianthus annuus [27]) | Activity (Abutilon theophrasti [28]) | Activity (Helianthus annuus [32]) | Activity (Helianthus annuus [33]) | further results
1 | CN1C(=O)[C@](O)(Cc2ccc(O)c(O)c2)N(C)C(=O)[C@@H]1Cc1c[nH]c2cccc([N+](=O)[O-])c12 [HYDROXYTHAXTOMIN A] | Active | Active | Active | Active | 10 ppb | 40 ppb |  |  |  |  |  |  |  |  |  |  |  |  | 
2 | CN1C(=O)[C@](O)(Cc2ccccc2)N(C)C(=O)[C@@H]1Cc1c[nH]c2cccc([N+](=O)[O-])c12 [THAXTOMIN B] | Active | Active | Active | Active | 28 ppb |  |  |  |  |  |  |  |  |  |  |  |  |  | 
3 | CN1C(=O)[C@H](Cc2ccccc2)NC(=O)[C@@H]1Cc1c[nH]c2cccc([N+](=O)[O-])c12 [THAXTOMIN C] | Active | Active | Active | Active | 50 ppb | 40 ppb | 0% | 0% | 0% | 0% | 0% | 0% | 0% | 30% | 75% | 50% | 0% | 0% | Activity (Avena fatua [7]): 0%; Activity (Avena fatua [8]): 0%; Activity (Avena fatua [9]): 0%; Activity (Avena fatua [12]): 0%; Activity (Echinochloa crus-galli [18]): 20%; Activity (Helianthus annuus [19]): 30%; Activity (Echinochloa crus-galli [21]): 40%; Activity (Helianthus annuus [22]): 70%; Activity (Echinochloa crus-galli [23]): 0%; Activity (Ipomoea hederacea [24]): 80%; Activity (Helianthus annuus [25]): 30%; Activity (Ipomoea hederacea [26]): 70%; Activity (Echinochloa crus-galli [29]): 0%; Activity (Ipomoea hederacea [30]): 80%; Activity (Helianthus annuus [31]): 30%; GR50 (Ipomoea hederacea [34]): <125 g/ha; Activity (Ipomoea hederacea [35]): 80%
4 | O=C1N[C@@H](Cc2c[nH]c3cccc([N+](=O)[O-])c23)C(=O)N[C@H]1Cc1ccccc1 [DES-N-METHYLTHAXTOMIN C] | Active | Active | Active | Active | 400 ppb | 600 ppb | 0% | 0% | 0% | 0% | 0% | 0% | 0% | 0% | 50% | 10% | 0% | 0% | 
5 | CN1C(=O)[C@](O)(Cc2ccccc2O)N(C)C(=O)[C@@H]1Cc1c[nH]c2cccc([N+](=O)[O-])c12 [THAXTOMIN A O-ISOMER] | Active | Active | Active | Active | 100 ppb | 90 ppb |  |  |  |  |  |  |  |  |  |  |  |  | Activity (Avena fatua [7]): 0%; Activity (Avena fatua [8]): 0%; Activity (Helianthus annuus [36]): 75%; Activity (Avena fatua [12]): 0%; Activity (Echinochloa crus-galli [37]): 20%; Activity (Echinochloa crus-galli [18]): 0%; Activity (Avena fatua [38]): 0%; Activity (Helianthus annuus [19]): 10%; Activity (Ipomoea hederacea [39]): 40%; Activity (Echinochloa crus-galli [21]): 0%; Activity (Helianthus annuus [22]): 75%; Activity (Echinochloa crus-galli [23]): 0%; Activity (Ipomoea hederacea [24]): 10%; Activity (Ipomoea hederacea [30]): 40%; Activity (Helianthus annuus [31]): 0%; Activity (Ipomoea hederacea [35]): 0%
6 | CN1C(=O)[C@](O)(Cc2ccc(O)cc2)N(C)C(=O)[C@@H]1Cc1c[nH]c2cccc([N+](=O)[O-])c12 [THAXTOMIN A P-ISOMER] | Active | Active | Active | Active | 190 ppb | 100 ppb |  |  |  |  |  |  |  |  |  |  |  |  | 
7 | CN1C(=O)[C@](O)(Cc2ccccc2)NC(=O)[C@@H]1Cc1c[nH]c2cccc([N+](=O)[O-])c12 [HYDROXYTHAXTOMIN C] | Active | Active | Active | Active | <40 ppb | <40 ppb | 0% | 20% | 80% | 0% | 0% | 0% | 0% | 95% | 100% | 70% | 0% | 20% | 
